The GI50 is the concentration giving 50% growth inhibition.

This is an account of results in publication PMC11215747, “Improved Rigidin-Inspired Antiproliferative Agents with Modifications on the 7-Deazahypoxanthine C7/C8 Ring Systems” (Journal of Medicinal Chemistry, 2024).

Data set [1] relates to HeLa cells. Description: MTT antiproliferative assay against HeLa cells. The data set is classed as cell-based, Human. On the procedure:
The 3-(4,5-dimethylthiazol-2-yl)-2,5-diphenyltetrazolium bromide (MTT) assay was employed to evaluate the antiproliferative activities of the synthesized 7-deazahypoxathine analogues. The HeLa, PNT1A, or PANC-1 cell lines were assessed by trypsinizing and seeding 4 × 10^3 cells per well into 96-well plates. Synthesized compounds were dissolved in DMSO at a concentration of either 50 mM or 100 mM before cell treatment. Cells were grown for 24 h and then treated with compounds at concentrations ranging from 0.04 to 100 μM and incubated for 48 h in 200 μL media. Twenty microliters of MTT reagent in serum-free medium (5 mg/mL) was added to each well and incubated further for 2 h. Media was removed and the resulting formazan crystals were resolubilized in 200 μL of DMSO. A Thermomax Molecular Device plate reader was utilized to measure A490. Experiments were performed in quadruplicate and repeated at least twice for each compound. The control comprised of cells treated with 0.1% DMSO. One micromolar phenyl arsine oxide (PAO) was utilized as a positive killing control. […]
On the technique in general: Formazan colour is commonly taken as a measure of viable cells.

The test system of data set [2] is HeLa cells. Description: Microtubule organization by immunolabeling in HeLa cells. The data set is classed as cell-based, Human. The following applies: 4 h; for effect on interphase microtubules / effect on spindle morphology: at GI50 concentrations. As to the method:
To examine microtubule morphology in rigidin-treated cells, HeLa cells were incubated for 4 h in the presence or absence of test compound before being fixed with 3.7% formaldehyde in PBS and permeabilized with 0.1% Triton X-100 in PBS. After blocking the cells with 3% bovine serum albumin in PBS, they were probed with antibodies for the centromere marker CENP-B (Abcam, code ab25734) and tubulin (Sigma, code sc-53029), which were detected with Alexa Fluor-labeled secondary antibodies (Thermofisher). Hoechst 33342 (1 mg/mL, Thermofisher H3570) was used to stain DNA. Samples were mounted on glass slides and imaged using Andor Dragonfly 505 spinning disk confocal system mounted on an Olympus IX83 inverted microscope. Figures were created with Adobe Photoshop CS5. All drugs were resuspended in DMSO, and 0.1% DMSO served as a carrier control.

Data set [3] concerns HeLa cells. In words: Annexin V apoptosis assay and cell-fate tracking in HeLa cells. The format is cell-based, Human. Conditions: 20 nM; for apoptosis at the 30 hour time point (Annexin V fluorescence): 6 biological replicates, one-way ANOVA amongst compounds; for total numbers of cells that died following mitotic arrest: single-cell tracking, >130 cells per treatment. On the procedure:
To directly assess apoptosis in living cells, HeLa cells were plated (six biological replicates per condition) in 96-well Imagelock Plates (Sartorius BA-04855) at a density of 1,562.5 cells/cm^2. The following day, cells were placed in media containing IncuCyte Annexin V Dye (Sartorius 4642) supplemented with either 0.1% Dimethyl sulfoxide or test compounds (20 nM), and plates were placed in a Sartorius Incucyte S3 live cell imaging system. Plates were scanned hourly, with phase contrast and green fluorescence images were acquired at three positions per well. Raw fluorescence data was processed using Incucyte software, and Prism Graphpad was used for data visualization and statistical analysis. To track individual cell fates, combined phase contrast/fluorescence time lapse sequences were exported from multiple wells per condition, and cell fates individual cells were scored and tabulated using Graphpad Prism software.

For a further data set, the system named is PNT1A cells. In words: MTT cytotoxicity assay against normal epithelial cell line PNT1A. The format is cell-based. Conditions: molecular formula strings CSV, read-out: PNT1A GI50. As to the method:
The 3-(4,5-dimethylthiazol-2-yl)-2,5-diphenyltetrazolium bromide (MTT) assay was employed to evaluate the antiproliferative activities of the synthesized 7-deazahypoxathine analogues. The HeLa, PNT1A, or PANC-1 cell lines were assessed by trypsinizing and seeding 4 × 10^3 cells per well into 96-well plates. Synthesized compounds were dissolved in DMSO at a concentration of either 50 mM or 100 mM before cell treatment. Cells were grown for 24 h and then treated with compounds at concentrations ranging from 0.04 to 100 μM and incubated for 48 h in 200 μL media. Twenty microliters of MTT reagent in serum-free medium (5 mg/mL) was added to each well and incubated further for 2 h. Media was removed and the resulting formazan crystals were resolubilized in 200 μL of DMSO. A Thermomax Molecular Device plate reader was utilized to measure A490. Experiments were performed in quadruplicate and repeated at least twice for each compound. The control comprised of cells treated with 0.1% DMSO. One micromolar phenyl arsine oxide (PAO) was utilized as a positive killing control.

In a further data set the target is T1, tubulin (Sus scrofa, UniProt P02554).
T1 construct: purchased Cytoskeleton, Inc
T1 sequence (P02554 whole entry): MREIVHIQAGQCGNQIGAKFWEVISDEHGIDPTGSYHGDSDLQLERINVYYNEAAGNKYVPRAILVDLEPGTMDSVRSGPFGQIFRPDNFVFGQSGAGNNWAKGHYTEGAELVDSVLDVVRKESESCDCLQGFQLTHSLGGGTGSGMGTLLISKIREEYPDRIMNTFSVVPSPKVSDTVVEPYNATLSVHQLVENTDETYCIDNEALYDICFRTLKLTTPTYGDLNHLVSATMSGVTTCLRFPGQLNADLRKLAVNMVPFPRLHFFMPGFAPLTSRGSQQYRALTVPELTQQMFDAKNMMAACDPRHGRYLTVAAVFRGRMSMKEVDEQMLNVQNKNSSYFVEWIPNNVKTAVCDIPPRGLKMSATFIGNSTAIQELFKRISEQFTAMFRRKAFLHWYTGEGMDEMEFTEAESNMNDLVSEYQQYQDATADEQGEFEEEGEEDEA
T1 sequence (P02550 whole entry partner): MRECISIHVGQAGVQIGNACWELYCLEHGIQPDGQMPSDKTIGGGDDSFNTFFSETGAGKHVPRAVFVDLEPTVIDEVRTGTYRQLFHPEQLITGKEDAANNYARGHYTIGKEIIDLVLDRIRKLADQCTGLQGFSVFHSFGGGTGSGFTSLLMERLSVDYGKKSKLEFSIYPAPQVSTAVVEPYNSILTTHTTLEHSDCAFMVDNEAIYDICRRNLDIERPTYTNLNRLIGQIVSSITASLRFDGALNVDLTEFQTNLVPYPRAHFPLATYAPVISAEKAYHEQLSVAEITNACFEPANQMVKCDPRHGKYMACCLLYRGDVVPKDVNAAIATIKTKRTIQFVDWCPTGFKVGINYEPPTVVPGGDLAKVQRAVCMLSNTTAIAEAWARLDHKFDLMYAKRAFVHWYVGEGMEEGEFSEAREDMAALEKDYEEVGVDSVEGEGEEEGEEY
Description: Fluorescence-based tubulin polymerization assay. Conditions: relative to 1% DMSO control. The format is biochemical. On the procedure: The fluorescence-based tubulin polymerization assay from Cytoskeleton, Inc. was used. […] The tubulin reaction mixture was prepared per manufacturer’s instructions, kept on ice, and used within ∼15 min of preparation. A Biotek Synergy H4 hybrid multimode plate reader was preheated to 37 °C. Prior to starting the assay, a half-area black 96-well plate was preheated within the plate reader. A volume of 5 μL of each of the tested samples was pipetted into separate wells of the plate and incubated in the warm plate reader for 1 min.

Details of data set [4]: method as in PMID 23927793. The following applies: cell line not given; cited from earlier work.
A short description of data set [5]: Aqueous solubility by laser nephelometry. The following applies: initial analysis. The data set is classed as physicochemical.
A short description of data set [6]: Stability of compound in solution. The format is physicochemical. Conditions: in solution / over time.
Where [7] appears, read: Homo sapiens, MTT assay, 48 h treatment, relative to DMSO control, two independent determinations, each in quadruplicate, read-out: GI50 (μM)± SD.
The mark [8] stands for this setting: 25 μM, averaged from two experiments.
Where [9] appears, read: Homo sapiens, MTT, 48 h, average and SD from two independent determinations, each in quadruplicate (footnote c), read-out: GI50 (μM) ± SD.

Entries after “also recorded” stand apart in the source; their conditions may differ. Where two headings read alike, the source gives them in different places.

Regarding `CC#CCCc1nc(=O)c2c(-c3ccccc3)c(C(=O)c3ccc(N4CCOCC4)cc3)[nH]c2[nH]1` [Compound 30, 6-(4-Morpholinobenzoyl)-2-(pent-3-yn-1-yl)-5-phenyl-1,7-dihydro-4H-pyrrolo[2,3-d]pyrimidin-4-one], the GI50 in the data set on HeLa cells [1] (setting [7]) is 0.043 ± 0.002 µM. In addition, in the data set with HeLa cells [1] (terminal versus internal alkyne analogues (1, 27 vs 31, 30)), the “reduction in activity following isomerization to the internal alkyne” value worked out at 2 fold.

As for “5-(3,5-Difluorophenyl)-6-[4-(2-ethoxyethoxy)benzoyl]-2-(pent-4-yn-1-yl)-1,7-dihydro-4H-pyrrolo[2,3-d]pyrimidin-4-one [Compound 60]”, in the data set with HeLa cells [2], the “effect on interphase microtubules” value is reported as “no striking effects on interphase microtubules” and the “effect on spindle morphology” value is recorded as “remarkable effects on the spindle morphology”. Moreover, in the data set with HeLa cells [3], the “apoptosis at the 30 hour time point (Annexin V fluorescence)” value was “no significant differences” and the “total numbers of cells that died following mitotic arrest” value was 85%. Besides, the GI50 in the data set on PNT1A cells worked out at 48 ± 10 nM.

`CC(=O)O[C@H]1C(=O)[C@@]2(C)[C@H]([C@H](OC(=O)c3ccccc3)[C@]3(O)C[C@H](OC(=O)[C@H](O)[C@@H](NC(=O)c4ccccc4)c4ccccc4)C(C)=C1C3(C)C)[C@]1(OC(C)=O)CO[C@@H]1C[C@@H]2O` [Paclitaxel, paclitaxel, reference compound]: the “effect on in vitro tubulin polymerization” value on tubulin (3 μM) was “promotes microtubule formation”; at tubulin (3 μM, listed as paclitaxel), “potent enhancement of microtubule formation”.

For the compound `C#CCCCc1nc(=O)c2c(-c3c(C)cccc3C)c(C(=O)c3ccccc3)[nH]c2[nH]1` [Compound 14, 6-Benzoyl-5-(2,6-dimethylphenyl)-2-(pent-4-yn-1-yl)-1,7-dihydro-4H-pyrrolo[2,3-d]pyrimidin-4-one], in the data set with HeLa cells [1] (setting [7]), the GI50 turned out to be 2.3 ± 0.09 µM.

As to `C#CCCCc1nc(=O)c2c(-c3ccccc3)c(C(=O)c3ccc(N4CCOCC4)cc3)[nH]c2[nH]1` [Compound 27, 6-(4-Morpholinobenzoyl)-2-(pent-4-yn-1-yl)-5-phenyl-1,7-dihydro-4H-pyrrolo[2,3-d]pyrimidin-4-one], the GI50 in the data set with PNT1A cells (Homo sapiens, PNT1A) was found to be 49 ± 20 nM; with HeLa cells [1] (setting [7]), 0.025 ± 0.002 µM.

In the case of `O=C(c1ccc(OCc2ccccc2)cc1)c1[nH]c2[nH]cnc(=O)c2c1-c1ccccc1` [Compound 32], the GI50 in data set [4] was 45 ± 4 nM.

Take `C#CCCCc1nc(=O)c2c(-c3ccc(N4CCOCC4)cc3)c(C(=O)c3ccccc3)[nH]c2[nH]1` [Compound 15, 6-Benzoyl-5-(4-morpholinophenyl)-2-(pent-4-yn-1-yl)-1,7-dihydro-4H-pyrrolo[2,3-d]pyrimidin-4-one]: the “decrease in antiproliferative activity compared to lead compound 1” value (from here on “decrease in antiproliferative activity”) with HeLa cells [1] came out at 500 fold. For the same compound, the GI50 with HeLa cells [1] (setting [7]) was determined as 11.3 ± 0.65 µM.

For the compound “6-[4-(2-Ethoxyethoxy)benzoyl]-5-(3-fluorophenyl)-2-(pent-4-yn-1-yl)-1,7-dihydro-4H-pyrrolo[2,3-d]pyrimidin-4-one [Compound 59]”, the “effect on in vitro tubulin polymerization” value on tubulin (setting [8]) was “potent inhibition of microtubule assembly; also recorded: completely suppress tubulin polymerization”. Further, in the data set with HeLa cells [2], the “effect on interphase microtubules” value is listed as “no striking effects on interphase microtubules” and the “effect on spindle morphology” value is on record as “remarkable effects on the spindle morphology”. In the data set on HeLa cells [3], the “apoptosis at the 30 hour time point (Annexin V fluorescence)” value was “no significant differences” and the “total numbers of cells that died following mitotic arrest” value came to 87%. The GI50 in the data set on PNT1A cells stood at 41 ± 11 nM. Further, in the data set on HeLa cells [1] (MTT, 48 h, average of eight repeats determined over 5 weeks (footnote d), read-out: GI50 (μM) ± SD), the GI50 was determined as 0.016 ± 0.004 µM.

With `C#CCCCc1nc(=O)c2c(-c3ccccc3)c(C(=O)c3ccc(OCCN4CCCC4)cc3)[nH]c2[nH]1` [Compound 35, 2-(Pent-4-yn-1-yl)-5-phenyl-6-{4-[2-(pyrrolidin-1-yl)ethoxy]benzoyl}-1,7-dihydro-4H-pyrrolo[2,3-d]pyrimidin-4-one], the “aqueous solubility relative to the other compounds” value in data set [5] is “significantly more soluble”. The “decrease in antiproliferative activity” value in the data set with HeLa cells [1] was around 150 fold. Further, in the data set with HeLa cells [1] (setting [9]), the GI50 turned out to be 2.87 ± 0.103 µM.

In the case of `C#CCCCc1nc(=O)c2c(-c3ccccc3)c(C(=O)c3ccccc3C)[nH]c2[nH]1` [Compound 21, 6-(2-Methylbenzoyl)-2-(pent-4-yn-1-yl)-5-phenyl-1,7-dihydro-4H-pyrrolo[2,3-d]pyrimidin-4-one], the GI50 in the data set on PNT1A cells (Homo sapiens, PNT1A) is 53 ± 12 nM; with HeLa cells [1] (setting [7]), 0.062 ± 0.005 µM.

As for “6-[4-(2-Ethoxyethoxy)benzoyl]-5-(6-fluoropyridin-2-yl)-2-(pent-4-yn-1-yl)-1,7-dihydro-4H-pyrrolo[2,3-d]pyrimidin-4-one [Compound 61]”, in data set [6], the stability entry is “unstable over time; also recorded: clear degradation of the compound in solution”. Further, the GI50 with HeLa cells [1] (tested once, compound degraded in solution, read-out: GI50) is 0.0224 µM.

Regarding `C#CCCCc1nc(=O)c2c(-c3ccccc3)c(C(=O)c3ccc(OCCN4CCOCC4)cc3)[nH]c2[nH]1` [Compound 34, 6-[4-(2-Morpholinoethoxy)benzoyl]-2-(pent-4-yn-1-yl)-5-phenyl-1,7-dihydro-4H-pyrrolo[2,3-d]pyrimidin-4-one], the “effect on in vitro tubulin polymerization” value at tubulin (setting [8]) is listed as “potent inhibition of microtubule assembly; also recorded: completely suppress tubulin polymerization”. In addition, in the data set on HeLa cells [2], the “effect on interphase microtubules” value is listed as “no striking effects on interphase microtubules” and the “effect on spindle morphology” value is “remarkable effects on the spindle morphology”. For the same compound, in the data set on HeLa cells [2] (lower concentrations (GI25)), the syntelic chromosome attachments entry is “still prevalent”. Also, the “aqueous solubility relative to the other compounds” value in data set [5] is “significantly more soluble”. The “decrease in antiproliferative activity” value in the data set with HeLa cells [1] is around 20 fold. Moreover, the GI50 in the data set with HeLa cells [1] (setting [9]) stood at 0.444 ± 0.03 µM.

Consider `C#CCCCc1nc(=O)c2c(-c3ccccc3C)c(C(=O)c3ccccc3)[nH]c2[nH]1` [Compound 13, 6-Benzoyl-2-(pent-4-yn-1-yl)-5-(o-tolyl)-1,7-dihydro-4H-pyrrolo[2,3-d]pyrimidin-4-one], for which the GI50 in the data set with HeLa cells [1] (setting [7]) was determined as 0.142 ± 0.044 µM.
